{
  "source": "patent US20250346575A1",
  "about": "“ISOINDOLINONE DERIVATIVE HAVING GLUTARIMIDE MOTHER NUCLEUS, AND USE THEREOF” (KOREA RESEARCH INSTITUTE OF CHEMICAL TECHNOLOGY, priority 2021, published 2025)",
  "tested_on": "NCI-H1155 (lung cancer cells)",
  "assay": "CytoX cell viability assay, NCI-H1155",
  "type": "cell-based",
  "conditions": "for viability at 0.01 µM / viability at 0.5 µM: Homo sapiens, NCI-H1155; for cytotoxic activity against cancer cells, H1155 cells (in words): (6+6) bicyclic heteroaryl compared to (6+5) bicyclic heteroaryl (Compounds 56-58 and 62-70)",
  "method": "The survival rate of NCI-H1155 (lung cancer cells) was measured using the CytoX cell viability assay kit (LPS solution, #CYT3000). NCI-H1155 cells were inoculated into 12-well plates. Afterwards, the cells were treated with each compound of the present disclosure and a comparative substance (CC-90009) at concentrations of 10 nM and 500 nM for 72 hours. Then, CytoX solution was added to the cells, incubated for one hour, and the absorbance of each well was read at 450 nm using a microplate reader to calculate the % viability, and the measurements are summarized in Table 2",
  "data": [
    {"smiles": "Cc1c(C(=O)NCc2ccc3c(c2)CN(C2CCC(=O)NC2=O)C3=O)sc2ccccc12", "note": "(stereo not shown) [Compound 76, N-((2-(2,6-Dioxopiperidin-3-yl)-1-oxoisoindolin-5-yl)methyl)-3-methylbenzo[b]thiophene-2-carboxamide]", "values": [
      {"measurement": "viability at 0.01 µM", "setting": "10 nM, 72 hours", "value": 28, "unit": "%"},
      {"measurement": "viability at 0.5 µM", "setting": "500 nM, 72 hours", "value": 26.3, "unit": "%"}
    ]},
    {"smiles": "Cc1c(C(=O)NCc2ccc3c(c2)CN(C2CCC(=O)NC2=O)C3=O)sc2cccc(F)c12", "note": "(stereo not shown) [Compound 79, N-((2-(2,6-Dioxopiperidin-3-yl)-1-oxoisoindolin-5-yl)methyl)-4-fluoro-3-methylbenzo[b]thiophene-2-carboxamide]", "values": [
      {"measurement": "viability at 0.01 µM", "setting": "10 nM, 72 hours", "value": 16.2, "unit": "%"},
      {"measurement": "viability at 0.5 µM", "setting": "500 nM, 72 hours", "value": 15.2, "unit": "%"}
    ]},
    {"smiles": "O=C1CCC(N2Cc3cc(CNC(=O)C(F)(F)c4ccc(Cl)cc4)ccc3C2=O)C(=O)N1", "note": "(stereo not shown) [CC-90009, reference compound]", "values": [
      {"measurement": "NCI-H1155 (% viability) at 10 nM", "setting": "10 nM, 72 hours", "value": 85.0, "unit": "%"},
      {"measurement": "NCI-H1155 (% viability) at 500 nM", "setting": "500 nM, 72 hours", "value": 23.5, "unit": "%"}
    ]},
    {"smiles": "O=C1CCC(N2Cc3cc(CNC(=O)c4cc5ccccc5oc4=O)ccc3C2=O)C(=O)N1", "note": "(stereo not shown) [Compound 60, N-((2-(2,6-Dioxopiperidin-3-yl)-1-oxoisoindolin-5-yl)methyl)-2-oxo-2H-cromene-3-carboxamide]", "values": [
      {"measurement": "cytotoxic activity against cancer cells, H1155 cells (in words)", "value": "less cytotoxic activity"},
      {"measurement": "viability at 0.01 µM", "setting": "10 nM, 72 hours", "value": 82, "unit": "%"},
      {"measurement": "viability at 0.5 µM", "setting": "500 nM, 72 hours", "value": 22.3, "unit": "%"}
    ]},
    {"smiles": "Cc1c(C(=O)NCc2ccc3c(c2)CN(C2CCC(=O)NC2=O)C3=O)sc2ccc(Cl)cc12", "note": "(stereo not shown) [Compound 75, 5-Chloro-N-((2-(2,6-dioxopiperidin-3-yl)-1-oxoisoindolin-5-yl)methyl)-3-methylbenzo[b]thiophene-2-carboxamide]", "values": [
      {"measurement": "viability at 0.01 µM", "setting": "10 nM, 72 hours", "value": 32.1, "unit": "%"},
      {"measurement": "viability at 0.5 µM", "setting": "500 nM, 72 hours", "value": 24.5, "unit": "%"}
    ]},
    {"smiles": "O=C1CCC(N2Cc3cc(CNC(=O)c4cc5cc(C(F)(F)F)ccc5s4)ccc3C2=O)C(=O)N1", "note": "(stereo not shown) [Compound 73, N-((2-(2,6-Dioxopiperidin-3-yl)-1-oxoisoindolin-5-yl)methyl)-5-(trifluoromethyl)benzo[b]thiophene-2-carboxamide]", "values": [
      {"measurement": "viability at 0.01 µM", "setting": "10 nM, 72 hours", "value": 40.4, "unit": "%"},
      {"measurement": "viability at 0.5 µM", "setting": "500 nM, 72 hours", "value": 26, "unit": "%"}
    ]},
    {"smiles": "COc1ccc2sc(C(=O)NCc3ccc4c(c3)CN(C3CCC(=O)NC3=O)C4=O)cc2c1", "note": "(stereo not shown) [Compound 65, N-((2-(2,6-Dioxopiperidin-3-yl)-1-oxoisoindolin-5-yl)methyl)-5-methoxybenzo[b]thiophene-2-carboxamide]", "values": [
      {"measurement": "viability at 0.01 µM", "setting": "10 nM, 72 hours", "value": 31.7, "unit": "%"},
      {"measurement": "viability at 0.5 µM", "setting": "500 nM, 72 hours", "value": 23.4, "unit": "%"}
    ]},
    {"smiles": "COc1cccc2cc(C(=O)NCc3ccc4c(c3)CN(C3CCC(=O)NC3=O)C4=O)oc12", "note": "(stereo not shown) [Compound 82, N-((2-(2,6-Dioxopiperidin-3-yl)-1-oxoisoindolin-5-yl)methyl)-7-methoxybenzofuran-2-carboxamide]", "values": [
      {"measurement": "viability at 0.01 µM", "setting": "10 nM, 72 hours", "value": 39, "unit": "%"},
      {"measurement": "viability at 0.5 µM", "setting": "500 nM, 72 hours", "value": 17.6, "unit": "%"}
    ]},
    {"smiles": "Cc1c(C(=O)NCc2ccc3c(c2)CN(C2CCC(=O)NC2=O)C3=O)sc2c(Cl)cccc12", "note": "(stereo not shown) [Compound 78, 7-Chloro-N-((2-(2,6-dioxopiperidin-3-yl)-1-oxoisoindolin-5-yl)methyl)-3-methylbenzo[b]thiophene-2-carboxamide]", "values": [
      {"measurement": "viability at 0.01 µM", "setting": "10 nM, 72 hours", "value": 15.7, "unit": "%"},
      {"measurement": "viability at 0.5 µM", "setting": "500 nM, 72 hours", "value": 15.6, "unit": "%"}
    ]},
    {"smiles": "Cc1c(C(=O)NCc2ccc3c(c2)CN(C2CCC(=O)NC2=O)C3=O)oc2ccc(Br)cc12", "note": "(stereo not shown) [Compound 85, 5-bromo-N-((2-(2,6-dioxopiperidin-3-yl)-1-oxoisoindolin-5-yl)methyl)-3-methylbenzofuran-2-carboxamide]", "values": [
      {"measurement": "viability at 0.01 µM", "setting": "10 nM, 72 hours", "value": 36.6, "unit": "%"},
      {"measurement": "viability at 0.5 µM", "setting": "500 nM, 72 hours", "value": 18.6, "unit": "%"}
    ]},
    {"smiles": "Cc1c(C(=O)NCc2ccc3c(c2)CN(C2CCC(=O)NC2=O)C3=O)sc2cccc(Cl)c12", "note": "(stereo not shown) [Compound 77, 4-Chloro-N-((2-(2,6-dioxopiperidin-3-yl)-1-oxoisoindolin-5-yl)methyl)-3-methylbenzo[b]thiophene-2-carboxamide]", "values": [
      {"measurement": "viability at 0.01 µM", "setting": "10 nM, 72 hours", "value": 24, "unit": "%"},
      {"measurement": "viability at 0.5 µM", "setting": "500 nM, 72 hours", "value": 24, "unit": "%"}
    ]},
    {"smiles": "COc1ccc2[nH]c(C(=O)NCc3ccc4c(c3)CN(C3CCC(=O)NC3=O)C4=O)cc2c1", "note": "(stereo not shown) [Compound 57, N-((2-(2,6-Dioxopiperidin-3-yl)-1-oxoisoindolin-5-yl)methyl)-5-methoxy-1H-indole-2-carboxamide]", "values": [
      {"measurement": "viability at 0.01 µM", "setting": "10 nM, 72 hours", "value": 83.8, "unit": "%"},
      {"measurement": "viability at 0.5 µM", "setting": "500 nM, 72 hours", "value": 21.2, "unit": "%"}
    ]},
    {"smiles": "COc1cccc2sc(C(=O)NCc3ccc4c(c3)CN(C3CCC(=O)NC3=O)C4=O)cc12", "note": "(stereo not shown) [Compound 74, N-((2-(2,6-Dioxopiperidin-3-yl)-1-oxoisoindolin-5-yl)methyl)-4-methoxybenzo[b]thiophene-2-carboxamide]", "values": [
      {"measurement": "viability at 0.01 µM", "setting": "10 nM, 72 hours", "value": 26.6, "unit": "%"},
      {"measurement": "viability at 0.5 µM", "setting": "500 nM, 72 hours", "value": 25.4, "unit": "%"}
    ]},
    {"smiles": "O=C1CCC(N2Cc3cc(CNC(=O)c4cc5c(ccc6ccccc65)o4)ccc3C2=O)C(=O)N1", "note": "(stereo not shown) [Compound 86, N-((2-(2,6-Dioxopiperidin-3-yl)-1-oxoisoindolin-5-yl)methyl)naphtho[2,1-b]furan-2-carboxamide]", "values": [
      {"measurement": "viability at 0.01 µM", "setting": "10 nM, 72 hours", "value": 14.7, "unit": "%"},
      {"measurement": "viability at 0.5 µM", "setting": "500 nM, 72 hours", "value": 14.7, "unit": "%"}
    ]},
    {"smiles": "Cc1ccc2cc(C(=O)NCc3ccc4c(c3)CN(C3CCC(=O)NC3=O)C4=O)sc2c1", "note": "(stereo not shown) [Compound 66, N-((2-(2,6-Dioxopiperidin-3-yl)-1-oxoisoindolin-5-yl)methyl)-6-methylbenzo[b]thiophene-2-carboxamide]", "values": [
      {"measurement": "viability at 0.01 µM", "setting": "10 nM, 72 hours", "value": 32.1, "unit": "%"},
      {"measurement": "viability at 0.5 µM", "setting": "500 nM, 72 hours", "value": 26.1, "unit": "%"}
    ]},
    {"smiles": "O=C1CCC(N2Cc3cc(CNC(=O)c4cnc5cc(Cl)ccc5c4O)ccc3C2=O)C(=O)N1", "note": "(stereo not shown) [Compound 59, 7-chloro-N-((2-(2,6-dioxopiperidin-3-yl)-1-oxoisoindolin-5-yl)methyl)-4-hydroxyquinoline-3-carboxamide]", "values": [
      {"measurement": "cytotoxic activity against cancer cells, H1155 cells (in words)", "value": "less cytotoxic activity"},
      {"measurement": "viability at 0.01 µM", "setting": "10 nM, 72 hours", "value": 102, "unit": "%"},
      {"measurement": "viability at 0.5 µM", "setting": "500 nM, 72 hours", "value": 40.1, "unit": "%"}
    ]},
    {"smiles": "Cc1ccc2c(C)c(C(=O)NCc3ccc4c(c3)CN(C3CCC(=O)NC3=O)C4=O)oc2c1", "note": "(stereo not shown) [Compound 84, N-((2-(2,6-Dioxopiperidin-3-yl)-1-oxoisoindolin-5-yl)methyl)-3,6-dimethylbenzofuran-2-carboxamide]", "values": [
      {"measurement": "viability at 0.01 µM", "setting": "10 nM, 72 hours", "value": 28.9, "unit": "%"},
      {"measurement": "viability at 0.5 µM", "setting": "500 nM, 72 hours", "value": 18.2, "unit": "%"}
    ]},
    {"smiles": "COc1ccc2cc(C(=O)NCc3ccc4c(c3)CN(C3CCC(=O)NC3=O)C4=O)oc2c1", "note": "(stereo not shown) [Compound 83, N-((2-(2,6-Dioxopiperidin-3-yl)-1-oxoisoindolin-5-yl)methyl)-6-methoxybenzofuran-2-carboxamide]", "values": [
      {"measurement": "viability at 0.01 µM", "setting": "10 nM, 72 hours", "value": 26.1, "unit": "%"},
      {"measurement": "viability at 0.5 µM", "setting": "500 nM, 72 hours", "value": 15.9, "unit": "%"}
    ]},
    {"smiles": "O=C1CCC(N2Cc3cc(CNC(=O)c4sc5cc(C(F)(F)F)ccc5c4Cl)ccc3C2=O)C(=O)N1", "note": "(stereo not shown) [Compound 72, 3-chloro-N-((2-(2,6-dioxopiperidin-3-yl)-1-oxoisoindolin-5-yl)methyl)-6-(trifluoromethyl)benzo[b]thiophene-2-carboxamide]", "values": [
      {"measurement": "viability at 0.01 µM", "setting": "10 nM, 72 hours", "value": 33, "unit": "%"},
      {"measurement": "viability at 0.5 µM", "setting": "500 nM, 72 hours", "value": 24.6, "unit": "%"}
    ]},
    {"smiles": "O=C1CCC(N2Cc3cc(CNC(=O)c4cc5ccccc5o4)ccc3C2=O)C(=O)N1", "note": "(stereo not shown) [Compound 56, N-((2-(2,6-Dioxopiperidin-3-yl)-1-oxoisoindolin-5-yl)methyl)benzofuran-2-carboxamide]", "values": [
      {"measurement": "viability at 0.01 µM", "setting": "10 nM, 72 hours", "value": 29.8, "unit": "%"},
      {"measurement": "viability at 0.5 µM", "setting": "500 nM, 72 hours", "value": 5.94, "unit": "%"}
    ]},
    {"smiles": "COc1ccc2c(Cl)c(C(=O)NCc3ccc4c(c3)CN(C3CCC(=O)NC3=O)C4=O)sc2c1", "note": "(stereo not shown) [Compound 68, 3-Chloro-N-((2-(2,6-dioxopiperidin-3-yl)-1-oxoisoindolin-5-yl)methyl)-6-methoxybenzo[b]thiophene-2-carboxamide]", "values": [
      {"measurement": "viability at 0.01 µM", "setting": "10 nM, 72 hours", "value": 29.9, "unit": "%"},
      {"measurement": "viability at 0.5 µM", "setting": "500 nM, 72 hours", "value": 26.4, "unit": "%"}
    ]},
    {"smiles": "Cc1ccc2c(Cl)c(C(=O)NCc3ccc4c(c3)CN(C3CCC(=O)NC3=O)C4=O)sc2c1", "note": "(stereo not shown) [Compound 67, 3-Chloro-N-((2-(2,6-dioxopiperidin-3-yl)-1-oxoisoindolin-5-yl)methyl)-6-methylbenzo[b]thiophene-2-carboxamide]", "values": [
      {"measurement": "viability at 0.01 µM", "setting": "10 nM, 72 hours", "value": 26.1, "unit": "%"},
      {"measurement": "viability at 0.5 µM", "setting": "500 nM, 72 hours", "value": 24.4, "unit": "%"}
    ]}
  ]
}
